The source made the active and inactive calls. The calls are words filed in the database; no cut-off is given here.
How the values were obtained:
[1] = molecular target: Tissue factor (Homo sapiens) (UniProt P13726); experiment: Inhibition of LPS-induced tissue factor activity in HUVEC at 10 uM preincubated for 4 hrs assessed after 4 hrs of LPS challenge by one stage clotting assay; assay type: cell-based
[2] = molecular target: Tissue factor (Homo sapiens) (UniProt P13726); experiment: Inhibition of TNF-alpha-induced tissue factor activity in HUVEC at 10 uM preincubated for 4 hrs assessed after 4 hrs of TNFalpha challenge by one stage clotting assay; assay type: cell-based
[3] = molecular target: Tissue factor (Homo sapiens) (UniProt P13726); experiment: Inhibition of LPS-induced tissue factor activity in HUVEC at 6 uM preincubated for 4 hrs assessed after 4 hrs of LPS challenge by one stage clotting assay; assay type: cell-based
[4] = molecular target: Tissue factor (Homo sapiens) (UniProt P13726); experiment: Inhibition of TNF-alpha-induced tissue factor activity in HUVEC at 6 uM preincubated for 4 hrs assessed after 4 hrs of TNFalpha challenge by one stage clotting assay; assay type: cell-based
[5] = molecular target: Tissue factor (Homo sapiens) (UniProt P13726); experiment: Inhibition of TNF-alpha-induced tissue factor activity in HUVEC at 30 uM preincubated for 4 hrs assessed after 4 hrs of TNFalpha challenge by one stage clotting assay
[6] = molecular target: Tissue factor (Homo sapiens) (UniProt P13726); experiment: Inhibition of LPS-induced tissue factor activity in HUVEC at 30 uM preincubated for 4 hrs assessed after 4 hrs of LPS challenge by one stage clotting assay; assay type: cell-based
[7] = molecular target: Tissue factor (Homo sapiens) (UniProt P13726); settings: HUVEC, 1 uM
Description: Inhibition of LPS-induced tissue factor activity in HUVEC at 1 uM preincubated for 4 hrs assessed after 4 hrs of LPS challenge by one stage clotting assay

[8] = molecular target: Tissue factor (Homo sapiens) (UniProt P13726); settings: HUVEC, 3 uM
Description: Inhibition of TNF-alpha-induced tissue factor activity in HUVEC at 3 uM preincubated for 4 hrs assessed after 4 hrs of TNFalpha challenge by one stage clotting assay

[9] = test system: HUVEC; experiment: Increase in acetylated histone H3 level in HUVEC preincubated for 4 hrs assessed after 0.5 hrs of TNFalpha challenge by Western blot; assay type: functional, cell-based; settings: Homo sapiens
[10] = test system: HUVEC; experiment: Effect on TNF-alpha-induced SP1 protein level in HUVEC preincubated for 4 hrs assessed after 0.5 hrs of TNFalpha challenge by Western blotting; assay type: functional, cell-based; settings: Homo sapiens
[11] = test system: HUVEC; experiment: Induction of PMA-induced wild type TFkappaB-dependent tissue factor promoter expression in HUVEC at 100 nM preincubated for 4 hrs assessed after 6 hrs of PMA challenge by luciferase reporter assay; assay type: cell-based; settings: Homo sapiens
[12] = molecular target: T1, Tissue factor (Mus musculus) (UniProt P20352); experiment: Inhibition of baseline tissue factor activity in non-stimulated C57BL/6J mouse macrophages after 4 hrs by one stage clotting assay; settings: concentration not given here
T1 sequence (whole entry): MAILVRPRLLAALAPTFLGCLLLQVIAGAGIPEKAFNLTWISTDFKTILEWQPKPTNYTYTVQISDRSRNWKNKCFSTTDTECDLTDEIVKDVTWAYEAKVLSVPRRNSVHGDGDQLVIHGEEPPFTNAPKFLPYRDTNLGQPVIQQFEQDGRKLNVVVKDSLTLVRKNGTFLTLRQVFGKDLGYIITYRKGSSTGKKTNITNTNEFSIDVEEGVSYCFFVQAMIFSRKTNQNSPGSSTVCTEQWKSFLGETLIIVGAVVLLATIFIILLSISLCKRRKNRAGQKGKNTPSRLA

[13] = test system: HUVEC; experiment: Effect on TNF-alpha-induced NF-kappaB activation assessed as p65/p50 binding to NF-kappaB in HUVEC at 0.3 uM preincubated for 4 hrs measured after 0.5 hrs of TNFalpha challenge by electrophoretic shift mobility assay; assay type: cell-based; settings: Homo sapiens
[14] = test system: HUVEC; experiment: Effect on TNF-alpha-induced NF-kappaB activation in HUVEC preincubated for 4 hrs assessed as increase in p65 level after 0.5 hrs of TNFalpha challenge by electrophoretic shift mobility assay; assay type: cell-based; settings: Homo sapiens
[15] = test system: HUVEC; experiment: Effect on TNF-alpha-induced wild type NF-kappaB-dependent ICAM1 promoter expression in HUVEC preincubated for 4 hrs assessed after 6 hrs of TNFalpha challenge by luciferase reporter assay; assay type: cell-based; settings: Homo sapiens
[16] = test system: HUVEC; experiment: Induction of PMA-induced wild type NF-kappaB-dependent ICAM promoter expression in HUVEC preincubated for 4 hrs assessed after 6 hrs of PMA challenge by luciferase reporter assay relative to control; assay type: cell-based; settings: Homo sapiens
[17] = test system: HUVEC; experiment: Inhibition of HOSCN-induced tissue factor protein expression in HUVEC preincubated for 4 hrs assessed after 4 hrs of HOSCN challenge by Western blotting; assay type: functional, cell-based; settings: Homo sapiens
[18] = molecular target: Tissue factor (Homo sapiens) (UniProt P13726); experiment: Inhibition of LPS-induced tissue factor activity in HUVEC at 0.3 uM preincubated for 4 hrs assessed after 4 hrs of LPS challenge by one stage clotting assay
[19] = test system: HUVEC; experiment: Inhibition of TNF-alpha-induced tissue factor protein expression in HUVEC preincubated for 4 hrs assessed after 4 hrs of TNFalpha challenge by Western blotting; assay type: functional, cell-based; settings: Homo sapiens
[20] = test system: HUVEC; experiment: Effect on LPS-induced wild type NF-kappaB-dependent ICAM1 promoter expression in HUVEC preincubated for 4 hrs assessed after 6 hrs of LPS challenge by luciferase reporter assay; assay type: cell-based; settings: Homo sapiens
[21] = molecular target: Tissue factor (Homo sapiens) (UniProt P13726); experiment: Inhibition of TNF-alpha-induced tissue factor activity in HUVEC at 1 uM preincubated for 4 hrs assessed after 4 hrs of TNFalpha challenge by one stage clotting assay; assay type: cell-based
[22] = molecular target: T1, Tissue factor (Mus musculus); experiment: Inhibition of TNF-alpha-induced tissue factor activity in C57BL/6J mouse macrophages preincubated for 4 hrs assessed after 5 hrs of TNFalpha challenge by one stage clotting assay; settings: concentration not given here
[23] = test system: HUVEC; experiment: Reduction of tissue factor mRNA level in TNF-alpha-stimulated HUVEC at 1 uM preincubated for 4 hrs assessed after 1 to 2 hrs of TNFalpha challenge by RT-PCR; assay type: functional, cell-based; settings: Homo sapiens
[24] = test system: HUVEC; experiment: Effect on TNF-alpha-induced Egr1 protein level in HUVEC preincubated for 4 hrs assessed after 0.5 hrs of TNFalpha challenge by Western blotting; assay type: functional, cell-based; settings: Homo sapiens
[25] = molecular target: T1, Tissue factor (Mus musculus); experiment: Inhibition of LPS-induced tissue factor activity in C57BL/6J mouse macrophages preincubated for 4 hrs assessed after 5 hrs of LPS challenge by one stage clotting assay; settings: concentration not given here
[26] = test system: HUVEC; experiment: Effect on TNF-alpha-induced NF-kappaB activation assessed as p65/p50 binding to NF-kappaB in HUVEC at 1 uM preincubated for 4 hrs measured after 0.5 hrs of TNFalpha challenge by electrophoretic shift mobility assay; assay type: cell-based; settings: Homo sapiens
[27] = test system: HUVEC; experiment: Effect on TNF-alpha-induced NF-kappaB activation in HUVEC preincubated for 4 hrs assessed as increase in p50 level after 0.5 hrs of TNFalpha challenge by electrophoretic shift mobility assay; assay type: cell-based; settings: Homo sapiens
[28] = test system: HUVEC; experiment: Inhibition of LPS-induced wild type TFkappaB-dependent tissue factor promoter expression in HUVEC preincubated for 4 hrs assessed after 6 hrs of LPS challenge by luciferase reporter assay; assay type: cell-based; settings: Homo sapiens
[29] = test system: HUVEC; experiment: Effect on TNF-alpha-induced TFkappaB activation assessed as p65/p50 binding to TFkappaB in HUVEC preincubated for 4 hrs measured after 0.5 hrs of TNFalpha challenge by electrophoretic shift mobility assay; assay type: cell-based; settings: Homo sapiens
[30] = test system: HUVEC; experiment: Inhibition of LPS-induced tissue factor protein expression in HUVEC preincubated for 4 hrs assessed after 4 hrs of LPS challenge by Western blotting; assay type: functional, cell-based; settings: Homo sapiens
[31] = test system: HUVEC; experiment: Inhibition of TNFalpha induced wild type TFkappaB-dependent tissue factor promoter expression in HUVEC preincubated for 4 hrs assessed after 6 hrs of TNFalpha challenge by luciferase reporter assay; assay type: cell-based; settings: Homo sapiens
[32] = test system: HUVEC; experiment: Effect on TNF-alpha-induced NF-kappaB activation in HUVEC preincubated for 4 hrs assessed as increase in c-Rel level after 0.5 hrs of TNFalpha challenge by electrophoretic shift mobility assay; assay type: cell-based; settings: Homo sapiens
[33] = test system: HUVEC; experiment: Effect on TNF-alpha-induced TFkappaB activation assessed as p65/c-Rel binding to TFkappaB in HUVEC preincubated for 4 hrs measured after 0.5 hrs of TNFalpha challenge by electrophoretic shift mobility assay; assay type: cell-based; settings: Homo sapiens
[34] = test system: Mus musculus; experiment: Decrease in thioglycolate-induced tissue factor activity in C57BL/6J mouse macrophage at 1 mg/kg, ip preincubated for 4 hrs assessed after 5 hrs of thioglycolate challenge by one stage clotting assay; assay type: functional; set-up: scale not given: the % may be the effect or the level left; settings: route intraperitoneal
[35] = test system: HUVEC; experiment: Inhibition of TNF-alpha-induced p65 binding to TFkappaB in HUVEC preincubated for 4 hrs assessed after 0.5 hrs of TNFalpha challenge by chromatin immunoprecipitation assay; assay type: cell-based; settings: Homo sapiens
[36] = test system: HUVEC; experiment: Increase in acetylated histone H4 level in HUVEC preincubated for 4 hrs assessed after 0.5 hrs of TNFalpha challenge by Western blot; assay type: functional, cell-based; settings: Homo sapiens
[37] = molecular target: T1, Tissue factor (Mus musculus); experiment: Inhibition of IL-1-beta-induced tissue factor activity in C57BL/6J mouse macrophages preincubated for 4 hrs assessed after 5 hrs of IL1-beta challenge by one stage clotting assay; settings: concentration not given here
[38] = test system: HUVEC; experiment: Inhibition of IL-1-beta-induced tissue factor protein expression in HUVEC preincubated for 4 hrs assessed after 4 hrs of IL1-beta challenge by Western blotting; assay type: functional, cell-based; settings: Homo sapiens
[39] = test system: HUVEC; experiment: Inhibition of TNF-alpha-induced p65 binding to ICAM1 NF-kappaB in HUVEC preincubated for 4 hrs assessed after 0.5 hrs of TNFalpha challenge by chromatin immunoprecipitation assay; assay type: cell-based; settings: Homo sapiens
[40] = test system: HUVEC; experiment: Effect on TNF-alpha-induced IkappaB degradation in HUVEC at 1 uM preincubated for 4 hrs assessed after 60 mins of TNFalpha challenge by Western blotting; assay type: functional, cell-based; settings: Homo sapiens
[41] = test system: HUVEC; experiment: Reduction of ICAM1 mRNA level in TNF-alpha-stimulated HUVEC at 1 uM preincubated for 4 hrs assessed after 1 to 2 hrs of TNFalpha challenge by RT-PCR; assay type: functional, cell-based; settings: Homo sapiens

Chain of Tissue factor (Homo sapiens) (P13726 whole entry): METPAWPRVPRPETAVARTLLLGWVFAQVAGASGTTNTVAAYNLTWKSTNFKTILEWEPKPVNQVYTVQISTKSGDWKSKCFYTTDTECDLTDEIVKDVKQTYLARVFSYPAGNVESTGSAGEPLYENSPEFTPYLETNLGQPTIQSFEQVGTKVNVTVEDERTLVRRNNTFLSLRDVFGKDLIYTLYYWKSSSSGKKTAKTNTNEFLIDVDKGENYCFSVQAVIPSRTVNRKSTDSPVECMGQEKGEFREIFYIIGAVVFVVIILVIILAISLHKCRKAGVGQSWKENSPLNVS

`CCCC(=O)[O-].[Na+]` was tested, and the inhibition [1] was 95% and the inhibition [2] was 90%.
For `CCCC(CCC)C(=O)O`, the inhibition [3] was 93% and the inhibition [4] was 81%.
`Nc1ccccc1NC(=O)c1ccc(CNC(=O)OCc2cccnc2)cc1` was tested, and the inhibition [5] was 85% and the inhibition [6] was 92%.
Compound `CCC(=O)CCCCC[C@@H]1NC(=O)[C@H]2CCCCN2C(=O)[C@H](C(C)CC)NC(=O)[C@H](Cc2cn(OC)c3ccccc23)NC1=O` (single isomer, unassigned) has an inhibition [7] of 80% and an inhibition [8] of 85%.
In the case of `CC(/C=C/C(=O)NO)=C\[C@@H](C)C(=O)c1ccc(N(C)C)cc1` [TRICHOSTATIN], the Activity [9] is reported as “Active”, the Activity [10] is reported as “inactive” and the Activity [11] is reported as 75%. The inhibition [12] was 60%, the Activity [13] was “inactive” and the Activity [14] was “inactive”. The Activity [15] was “inactive”, the Activity [16] was “inactive” and the Activity [17] was “Active”. For the same compound, the inhibition [18] was 91%, the Activity [19] was “Active” and the Activity [20] was “inactive”. The inhibition [21] was 95%, the inhibition [22] was 60% and the Activity [23] was “Active”. For the same compound, the Activity [24] was “inactive”, the inhibition [25] was 60% and the Activity [26] was “inactive”. For the same compound, the Activity [27] was “inactive”, the Activity [28] was “Active” and the Activity [29] was “Active”. For the same compound, the Activity [30] was “Active”, the Activity [31] was “Active” and the Activity [32] was “inactive”. For the same compound, the Activity [33] was “Active”, the Activity [34] was 50% and the Activity [35] was “Active”. For the same compound, the Activity [36] was “Active”, the inhibition [37] was 60% and the Activity [38] was “Active”. The Activity [39] was “inactive”, the Activity [40] was “inactive” and the Activity [41] was “inactive”.
